Source: article PMC7893776, “Selecting an anti-malarial clinical candidate from two potent dihydroisoquinolones” (Malaria Journal, 2021)
Like-named read-outs stand apart in the source and are kept apart here. Marks after values point to notes of the source that are not given here.

Key:
[1] = parameters: method as in PMID 31898492; conditions: octanol/pH 7.4 buffer, averaged from high and low concentration partition samples; cited from earlier work
[2] = parameters: method as in earlier work; conditions: 6 h, cited from earlier work
[3] = Parallel artificial membrane permeability assay (PAMPA); type: in vitro ADME
Method: The assay was conducted using a Biomek FX lab automation workstation (Beckman Coulter, Inc., Fullerton, CA) with PAMPA evolution 96 command software (pION Inc., Woburn, MA). Test compound stock (10 mM in DMSO, 3 µL) was mixed with citrate phosphate buffered saline (597 µL) to make diluted test compound. Diluted test compound (150 µL) was transferred to a UV plate (pION Inc., Woburn, MA) and the UV spectrum (250–500 nm) was read as the reference plate. Each well of the donor plate in a PAMPA sandwich plate (pION Inc., Woburn, MA) contained a filter that was painted on one side with 4 µL GIT lipid (pION Inc., Woburn, MA) to form a membrane. Each well in the acceptor plate in a PAMPA sandwich, preloaded with magnetic stir bars, was filled with acceptor solution buffer (200 µL, pION Inc., Woburn, MA). The donor plate was filled with diluted test compound (180 µL). The combined PAMPA plate was placed on a pIon Gut-box™ and stirred for 30 min. The UV spectrum (250–500 nm) of the donor and the acceptor were read. The permeability coefficient and recovery were calculated using PAMPA evolution 96 command software (pION Inc., Woburn, MA) based on the whole spectrum measured from the reference plate, the donor plate, and the acceptor plate. All compounds were tested in triplicate.

[4] = parameters: method as in PMID 31898492; conditions: human whole blood; cited from earlier work
[5] = pKa by potentiometric titration; type: physicochemical
Method: Octanol/pH 7.4 buffer partitioning experiments were conducted using a shake flask method, and pKa was assessed by potentiometric titration. Both methods have been described previously.

[6] = Rat single oral dose toxicology / toxicokinetic study; type: in vivo, male Sprague Dawley rats
Method: The high dose levels of both compounds (50, 100, 200 mg/kg, PO, (+)-SJ733/311) were also independently tested by SRI, with a single oral gavage administration. Blood (through jugular vein) and urine were collected at time points up to 72 and 24 h post dose, respectively. Supernatant plasma was removed following centrifugation and stored frozen (− 70 °C) until LC–MS analysis. For toxicology studies, male Sprague Dawley rats were administered 50, 100, 250, 500, or 750 mg/kg of (r)-SJ733 or (r)-SJ311 by oral gavage (one dose per animal). Body weights were recorded on Day 1 prior to dose administration and on Day 4. Blood samples (400 µL) were collected at 4 and 24 h post drug administration from the retro-orbital sinus. Potassium EDTA treated plasma was collected and kept frozen at -70 °C for bioanalytical analysis. Rat samples from the toxicokinetic study at SRI were analyzed at SJCRH using the method described above. The calibration range was from 47 to 26,000 ng/mL for plasma.

[7] = Storage stability of samples at −80 °C; conditions: stored at − 80 °C for more than 14 days, ± 15% variance
Text: All plasma samples that were shipped elsewhere from the testing facility were all analyzed within the validated stability time period.

[8] = system: recombinant human CYP1A1, 1A2, 1B1, 2B6, 2C8, 2C9, 2C19, 2D6, 3A4; assay: Recombinant human cytochrome P450 (rhCYP) metabolism; type: in vitro ADME
Method: SJ733 was first pre-incubated with Bactosomes™ (Cypex Ltd, final P450 concentration: CYP1A1 25 pmol/mL, CYP1A2 100 pmol/mL,CYP1B1 100 pmol/mL, CYP2B6 100 pmol/mL, CYP2C8 50 pmol/mL, CYP2C9, 25 pmol/mL, CYP2C19 100 pmol/mL, CYP2D6 50 pmol/mL and CYP3A4 25 pmol/mL, 0.1 M phosphate buffer pH 7.4) at 37 °C prior to the addition of NADPH (final concentration 1 mM) to initiate the reaction with a final incubation volume of 50 μL. Incubations were also performed using control Bactosomes™ (no P450 enzymes present) to reveal any non-enzymatic degradation. Control compounds known to be metabolized specifically by each P450 isoform were included individually. Test articles and controls were incubated with each isoform for 0, 5, 15, 30, and 45 min. The reactions were stopped by transferring 20 μL of the reaction mixture to 60 μL methanol at the appropriate timepoints.

N#Cc1cc(NC(=O)[C@H]2c3ccccc3C(=O)N(CC(F)(F)F)[C@@H]2c2cccnc2)ccc1F [(+)-SJ733]
LogD (7.4) Shake flask [1]: 3.90 ± 0.01^a,b
Solubility ([2]; FaSSIF-V2 pH 6.5, 37°C): 216^b µM
Solubility ([2]; FeSSIF-V2 pH 5.8, 37°C): 254^b µM
Solubility ([2]; Phosphate buffer pH 7.4, 37°C): 246^b µM

N#Cc1cc(NC(=O)C2c3ccccc3C(=O)N(CC(F)(F)F)C2c2cccnc2)ccc1F (racemic) [(r)-SJ733]
Permeability, PAMPA ([3]; pH 3): 66 ± 3.5 10^–6 cm/s
Permeability, PAMPA ([3]; pH 5): 380 ± 7.2 10^–6 cm/s
Permeability, PAMPA ([3]; pH 7.4): 350 ± 130 10^–6 cm/s
B/P ratio [4]: 0.72 ± 0.02^b

N#Cc1cc(NC(=O)C2c3ccccc3C(=O)N(CC(F)(F)F)C2c2cn[nH]c2)ccc1F (racemic) [(r)-SJ311]
pKa [5]: 11.1 ± 0.3
Permeability, PAMPA ([3]; pH 3): 17 ± 2.3 10^–6 cm/s
Permeability, PAMPA ([3]; pH 5): 15 ± 6.7 10^–6 cm/s
Permeability, PAMPA ([3]; pH 7.4): 9.4 ± 7.0 10^–6 cm/s
clinical observation ([6]; rats, 100 and 500 mg/kg groups, single oral gavage): Ruffled fur

N#Cc1cc(NC(=O)[C@H]2c3ccccc3C(=O)N(CC(F)(F)F)[C@@H]2c2cn[nH]c2)ccc1F [SJ311]
storage stability [7]: stable

N#Cc1cc(NC(=O)[C@H]2c3ccccc3C(=O)N(CC(F)(F)F)[C@@H]2c2cccnc2)ccc1F (racemic) [SJ733]
AUCinf at the highest event free dose ([6]; rat): over 217 µM h
adverse events ([6]; rat, at any dose): No adverse events
provable therapeutic window ([6]; rat, in vivo): above 40
formation of metabolites ([8]; incubation with CYP1A1, 1A2, 1B1, 2B6, 2C9, or 2C19 recombinant enzymes): no detectable formation of metabolites
formation of metabolites ([8]; incubations with CYP2C8, 2D6, and 3A4 recombinant enzymes): Metabolite formation was only observed
storage stability [7]: stable
